# Test results as given in publication PMC11592477, “Bioengineering the Human Intestinal Mucosa and the Importance of Stromal Support for Pharmacological Evaluation In Vitro” (Cells, 2024).
# B1: keratinocyte growth factor (protein, UniProt P21781 32-194, looked up)
# Fibroblast growth factor 7: CNDMTPEQMATNVNCSSPERHTRSYDYMEGGDIRVRRLFCRTQWYLRIDKRGKVKGTQEMKNNYNIMEIRTVAVGIVAIKGVESEFYLAMNKEGKLYAKKECNEDCNFKELILENHYNTYASAKWTHNGGEMFVALNQKGIPVRGKKTKKEQKTAHFLPMAIT
# notes: keratinocyte growth factor, soluble mediator secreted by fibroblasts, added exogenously to EO constructs
# What was measured:
# [1] = system: epithelial-only (EO) Caco-2 monolayer constructs; assay: Ussing chamber drug permeability, epithelial-only (EO) constructs; assay type: in vitro ADME, human
# [2] = system: full thickness (FT) intestinal constructs (Caco-2 on CCD-18co or HDFn stromal compartment); assay: Ussing chamber drug permeability, full-thickness (FT) intestinal constructs; assay type: in vitro ADME, human
# Caco-2 monolayers = conditions: hydrophilic drugs; in words; ref [14]; cited from earlier work
# [3] = hydrophilic drugs; in words; ref [14]; cited from earlier work
# [4] = system: epithelial-only (EO) Caco-2 monolayer constructs; assay: qPCR gene expression in KGF-supplemented EO constructs; assay type: cell-based, human; conditions: with increasing KGF concentration
# Description: (§1) For conditioned medium studies, Caco-2 monolayers were established as above, but after 48 h, the medium was replenished with a 1:1 mix of fresh culture medium and conditioned medium obtained from 80% confluent fibroblast cultures (HDFn or CCD-18co). The conditioned medium was centrifuged to remove cellular debris and sterile filtered before addition to EO cultures. Similarly, KGF-supplemented cultures were seeded in standard conditions and supplemented with a range of concentrations (0.5–25 ng·mL^−1) of KGF following the establishment of cultures for 48 h. Both conditioned and KGF-supplemented media were replenished at each media change: every two days.
# EO tissue constructs were lysed in RLT buffer (Qiagen, Manchester, UK) and homogenized through repeated aspiration with a 20-gauge needle. […] The mRNA was suspended in molecular-grade water and stored at −80 °C prior to analysis. mRNA abundance was quantified using a Nanodrop Spectrophotometer […] and 200 ng was reverse-transcribed using the GoScript™ Reverse Transcriptase kit (Promega, Hampshire, UK), as per the manufacturer’s instructions. […] Data were analyzed through normalization to the housekeeping reference genes (GAPDH) using the ΔΔCt method and the fold change was averaged after this normalization.
# villin = assay: Immunofluorescence of villin in KGF-supplemented EO constructs; assay type: cell-based, human; conditions: with KGF concentration up to 5–25 ng.mL−1
# Description: as §1
# Wax sections were prepared for staining by de-paraffinization in Histo-Clear followed by rehydration from 100% ethanol to PBS. Antigen retrieval was performed in citrate buffer (pH 6, Sigma-Aldrich) at 95 °C for 20 min. Alternatively, EO constructs were prepared through fixation in a 1:1 ice-cold solution of methanol (Sigma-Aldrich) and acetone (Sigma-Aldrich) for 10 min at −20 °C. From this point onwards whole EO constructs and mounted tissue sections were stained in the same manner.
# The samples were blocked for 1 h at room temperature in a solution consisting of 10% normal goat serum ([…], Sigma-Aldrich) and 0.1% […] (Sigma-Aldrich) in PBS. […]
# [5] = system: epithelial-only (EO) Caco-2 monolayer constructs; assay: Transepithelial electrical resistance (TEER) of KGF-supplemented EO constructs; assay type: cell-based, human; conditions: with increasing KGF concentration (0.5–25 ng.mL−1)
# MDR1 = MDR1 (Homo sapiens, UniProt P08183); assay: MDR1-mediated Rhodamine 123 transport in EO constructs (Ussing chamber); conditions: EO constructs supplemented with KGF 0.5–25 ng.mL−1, absence of verapamil
# MDR1, sequence (P08183 whole entry): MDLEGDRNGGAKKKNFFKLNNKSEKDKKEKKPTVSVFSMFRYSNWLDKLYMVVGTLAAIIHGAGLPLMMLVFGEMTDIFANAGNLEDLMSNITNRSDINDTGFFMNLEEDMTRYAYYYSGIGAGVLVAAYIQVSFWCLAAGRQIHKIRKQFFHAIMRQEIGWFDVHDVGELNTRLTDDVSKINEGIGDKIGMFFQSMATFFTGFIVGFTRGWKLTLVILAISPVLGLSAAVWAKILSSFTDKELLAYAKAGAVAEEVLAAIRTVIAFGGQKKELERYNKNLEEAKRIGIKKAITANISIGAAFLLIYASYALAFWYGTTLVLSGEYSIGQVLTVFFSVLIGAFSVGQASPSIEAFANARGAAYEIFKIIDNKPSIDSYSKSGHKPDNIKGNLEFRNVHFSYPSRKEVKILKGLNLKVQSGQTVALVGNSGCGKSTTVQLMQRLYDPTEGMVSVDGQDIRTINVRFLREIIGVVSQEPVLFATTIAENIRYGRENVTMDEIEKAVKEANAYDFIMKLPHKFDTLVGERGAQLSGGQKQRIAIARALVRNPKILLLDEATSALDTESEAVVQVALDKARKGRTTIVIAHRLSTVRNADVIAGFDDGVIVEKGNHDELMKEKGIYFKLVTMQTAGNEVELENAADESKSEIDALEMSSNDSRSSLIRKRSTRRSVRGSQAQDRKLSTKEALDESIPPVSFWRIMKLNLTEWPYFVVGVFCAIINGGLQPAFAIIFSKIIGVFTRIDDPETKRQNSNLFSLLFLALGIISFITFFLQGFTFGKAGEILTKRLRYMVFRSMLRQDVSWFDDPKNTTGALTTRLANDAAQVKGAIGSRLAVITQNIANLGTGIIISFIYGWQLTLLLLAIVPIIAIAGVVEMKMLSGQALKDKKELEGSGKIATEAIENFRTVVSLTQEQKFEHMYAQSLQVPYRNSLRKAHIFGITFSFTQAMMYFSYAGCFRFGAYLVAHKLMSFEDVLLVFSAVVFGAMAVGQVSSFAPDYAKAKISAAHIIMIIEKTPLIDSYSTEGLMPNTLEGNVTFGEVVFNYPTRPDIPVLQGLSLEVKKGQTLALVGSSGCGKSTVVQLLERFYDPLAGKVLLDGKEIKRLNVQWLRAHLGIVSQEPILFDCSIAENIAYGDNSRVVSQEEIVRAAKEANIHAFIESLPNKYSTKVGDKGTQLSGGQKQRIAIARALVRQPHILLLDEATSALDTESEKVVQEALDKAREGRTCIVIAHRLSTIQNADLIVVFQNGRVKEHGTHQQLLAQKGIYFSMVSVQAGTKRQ
# Aminopeptidase = Aminopeptidase activity assay of KGF-supplemented EO constructs; assay type: cell-based, human; conditions: with increasing KGF concentration (0.5–25 ng.mL−1)
# Description: as §1
# Aminopeptidase activity was quantified through the catalyzation of the cleavage of L-slsninr-4-nitroanilide hydrochloride into the breakdown product 4-nitranline. This was achieved through the addition of 0.5 mL of prewarmed 1.5 mM L-analine-4-nitiroanilide hydrochloride solution (Sigma-Aldrich, St. Louis, […], USA) to the apical compartment of bioengineered tissue constructs (both EO and FT). The constructs were incubated for 1 h at 37 °C at 100 rpm using an orbital shaker. Following incubation, 100 μL of the cleavage product-containing solution was sampled from each construct and the absorbance was quantified at 405 nm using a BioTek™ ELx800 (Winooski, VT, USA) plate reader. Enzyme activity was expressed as a function of tissue area.
# [6] = FT constructs on intestinal and dermal fibroblast foundation compared with Caco-2 monolayer EO, 100 μM
molecule,measurement,setting,value
COC(=O)c1ccccc1-c1c2ccc(=N)cc-2oc2cc(N)ccc12 [Rhodamine 123],"apparent permeability (Papp), basal-apical","[1]; EO constructs in dermal fibroblast conditioned medium vs control, 5 μM, 120 min",enhanced
same,"apparent permeability (Papp), apical-basal","[1]; EO constructs in medium conditioned by intestinal and dermal fibroblasts vs control medium, 5 μM, 120 min",increased
same,"apparent permeability (Papp), basal-apical","[2]; FT constructs on intestinal fibroblast foundation compared with dermal fibroblast counterpart, absence of verapamil, 5 μM",significantly increased
same,"apparent permeability (Papp), apical-basal","[2]; FT constructs on intestinal vs dermal fibroblast foundation, regardless of verapamil, 5 μM",no significant difference
CC1(C)S[C@@H]2[C@H](NC(=O)[C@H](N)c3ccc(O)cc3)C(=O)N2[C@H]1C(=O)O [amoxicillin],Caco-2 permeability in vitro,Caco-2 monolayers,low
same,absorption in vivo,[3],high
CC1=C(C(=O)O)N2C(=O)[C@@H](NC(=O)[C@H](N)c3ccc(O)cc3)[C@H]2SC1 [cefadroxil],Caco-2 permeability in vitro,Caco-2 monolayers,low
same,absorption in vivo,[3],high
N[C@@H](C(=O)N[C@@H]1C(=O)N2C(C(=O)O)=C(Cl)CC[C@H]12)c1ccccc1 [loracarbef],Caco-2 permeability in vitro,Caco-2 monolayers,low
same,absorption in vivo,[3],high
CN(Cc1cnc2nc(N)nc(N)c2n1)c1ccc(C(=O)N[C@@H](CCC(=O)O)C(=O)O)cc1 [methotrexate],"Papp, basal-apical transport (BCRP-mediated)","[1]; EO constructs in intestinal fibroblast conditioned medium, 10 μM",modestly enhanced
same,"Papp, apical-basal transport (RFC1 and PCFT)","[2]; FT co-culture constructs only, to a greater degree with dermal fibroblasts, 10 μM",increased
same,"Papp, basal-apical transport (BCRP-mediated)","[2]; FT constructs with dermal fibroblast-based stromal foundation, 10 μM",increased to the greatest extent
CC(C)C[C@H](CN)CC(=O)O [pregabalin],Caco-2 permeability in vitro,Caco-2 monolayers,low
same,absorption in vivo,[3],high
Cc1cn([C@H]2C[C@H](N=[N+]=[N-])[C@@H](CO)O2)c(=O)[nH]c1=O [zidovudine],Caco-2 permeability in vitro,Caco-2 monolayers,low
same,absorption in vivo,[3],high
Lucifer yellow,"permeability (Papp), basal-apical","[1]; EO constructs in intestinal fibroblast-conditioned medium vs control, not significant, 100 μM",slight increase
same,"permeability (Papp), apical-basal",[2]; [6],significantly increased
same,"permeability (Papp), basal-apical",[2]; [6],significantly increased
B1,occludin gene expression (qPCR),[4],decreased
same,villin gene expression (qPCR),[4],increased
same,immunofluorescent detection of villin,villin,increases
same,TEER,[5],decreased
same,effect on basal-apical transport of Rhodamine 123,MDR1,increased
same,aminopeptidase activity,Aminopeptidase,increased
